melting point [°C]	Compound
214 to 216	CC(C)Cn1cnc2c(N)nc3ccc(OCc4ccccc4)cc3c21
79.7 to 82.5	O=C(CCCC(=O)C(F)(F)F)c1ccc(-c2cccc3ccccc23)cc1
159 to 164	CCOc1ccc(-c2ccc3c(c2)C=C(C(=O)OC)CCN3)cc1OCC
135 to 138	Clc1ccc(Nc2nc3ccccc3c3c2ncn3-c2ccco2)cc1Cl
85 to 86	CCn1ncnc1COc1nn2c(-c3cc(F)ccc3F)nncc2c1C(C)(C)CC
158	CN(C)S(=O)(=O)n1cc(-c2ccc(Cl)cc2Cl)nc1C1=NC(=O)C(=O)S1
222 to 223	CC(CO)n1nc(-c2cnc(N)nc2-c2ccccc2)ccc1=O (stereo unspecified)
194 to 195	CCOC(=O)c1cn(C2CC2)c2c(F)c(-c3cc(C)nc(C)c3)c(F)cc2c1=S
208 to 210	O=C(CCc1ccc2cc(F)ccc2n1)NO
198 to 205	CCOC(=O)c1cn(-c2cc(N)c(F)cc2F)c2cc(F)c(F)cc2c1=O
196 to 197	Nc1c(-c2cccc(Oc3ccccc3)c2)c(=O)[nH]c2cc(Cl)ccc12
220 to 222	COc1cc(Nc2c(C#N)cnc3cc4cc(OCCN5CCOCC5)c(OC)cc4cc23)c(Cl)cc1C
40	CCC(=O)OCCN1CCc2cc(Nc3ncc(Cl)c(Nc4ccccc4S(=O)(=O)N(C)C)n3)c(OC)cc2CC1
246 to 248	Nc1nc(N)nc(-c2ccc(OCc3ccc(Cl)cc3)cc2)n1
205 to 207	O=C(O)c1cn(CC(F)(F)F)c2c(F)c(F)c(F)cc2c1=O
99.5 to 101	Cc1cn(C(C)C(=O)N(C)C)nc1-c1ccc(Cl)cc1 (stereo unspecified)
167 to 168	O=C(OCC(O)CO)c1cc(F)ccc1Nc1ccnc2cc(C(F)(F)F)ccc12 (stereo unspecified)
265 to 268	O=C1Cc2ccc3ccccc3c2C(c2ccccc2F)N1 (stereo unspecified)
138 to 139	CCCCCCCCCCC(=O)NCc1cccc2c1C(=O)N(C1CCC(=O)NC1=O)C2=O (stereo unspecified)
162 to 165	COc1cc(C)c(C(O)c2c(Cl)cnc(Cl)c2C(F)(F)F)c(OC)c1OC (stereo unspecified)
> 260	Cc1nc2ccc(C(=O)O)nc2n1Cc1ccc(Cl)cc1Cl

melting point [°C]	Compound
130 to 131	CC(C)(C)C(=O)c1cnn2cccnc12
243 to 244	CC(=O)c1cnc2c(c1)[C@@H](NC(=O)c1ccccc1Cl)[C@H](O)C(C)(C)O2 (relative stereo)
126	O=C(c1ccccc1[N+](=O)[O-])C1CCN(C(=O)C(F)(F)F)CC1
178 to 179	CC(=O)c1cccc(-c2ccc3c(c2)C(C)(C)OC(=O)N3)c1
191 to 193	CCCCNC(=O)Nc1ccc(OCC)cc1C(=O)NCC1CCN(C(c2ccccc2)c2ccccc2)CC1
153 to 155	CCCCCCCOc1cc2c(cc1C=Cc1ccc(C(=O)O)cc1)C(C)(C)CCC2(C)C
127 to 128	COC(=O)c1nc(Cl)cc(Cl)c1N
172 to 176	COc1cc2c(cc1OS(N)(=O)=O)CC(C)(C)N(C(=O)c1cc(OC)c(OC)c(OC)c1)C2
133 to 135	COc1cc(C(C)=O)ccc1OCCN1CCC(c2noc3cc(Cl)ccc23)CC1
221 to 223	CC(C)C1(C)N=C(c2nc3sccc3cc2C(=O)O)NC1=O (stereo unspecified)
230 to 235	CC1CC(c2c(S(C)(=O)=O)ccc(C(=O)c3cnn(C)c3O)c2Cl)=NO1 (stereo unspecified)
155 to 157	CNS(=O)(=O)CCCn1cnc2c(N)nc3ccccc3c21
82 to 83	CCn1cc(CC(=O)O)c(OCCCc2ccc(OCOC)cc2Oc2ccc(C(F)(F)F)cn2)n1
181 to 183	COC(=O)c1ccc(C)c(C2=NC(C)(C(C)C)C(=O)N2)c1Cl (stereo unspecified)
189 to 193	CCCCc1nc2c(N)nc3ccc(OCCC4CCN(C(=O)C(C)C)CC4)cc3c2n1C
> 300	O=C(Nc1cccc(C(=O)O)c1)OCc1cn(-c2cc3cc(C(=O)O)c(=O)[nH]c3cc2[N+](=O)[O-])cn1
141 to 143	COc1cc2c(cc1OC)CC(N(C)CCCN1CCc3cc(OC)c(OC)cc3C(O)C1=O)CC2 (stereo unspecified)
148 to 150	CN1CCC(c2c[nH]c3ccc(Sc4ccc(Cl)cc4)cc23)CC1
93 to 102	COc1cn(-c2cc(-c3cnn(C)c3)ccc2F)nc(-c2ccnn2-c2ccccc2)c1=O
124 to 127	COC(=O)C(C)(C)OCc1cc2nc(C(F)(F)F)ccc2n1S(=O)(=O)c1ccc2ncsc2c1
164 to 181	COc1ccc(-c2nc(C(=O)O)cc(Cl)c2Cl)cc1

The next lines start with the molecule.

Compound	melting point [°C]
Cc1cccc(N(c2ccccc2)c2ccc(-c3ccc(-c4ccc(N(c5ccccc5)c5cccc(C)c5)cc4)cc3)cc2)c1	189 to 190
COC1(c2cccc3[nH]ccc23)CCNCC1	216
Brc1ccc(N2CCC(Cc3ccccc3)CC2)nc1	78
O=C(O)c1ccc(C(=O)N2CCOCC2)nc1	181 to 183
COc1cc(Br)cc(C23CC4CC(CC(C4)C2)C3)c1O	157 to 159
CCSc1ccc(NC=O)cc1S(N)(=O)=O	127
Brc1ccc2c(c1)OCCN2C1CCOCC1	66.2
COc1ccc(C[C@H]2[C@H](CO)CCCN2C)cc1 (relative stereo)	66 to 68
O=Cc1ccc(-c2ccc(-c3ccc(C=O)o3)cn2)cc1	204 to 206
ClCc1coc(-c2cc(Cl)cs2)n1	72 to 73
Cc1nc2c(cc1C=O)CCCCC2	38 to 40
O=C(NCCCn1cnc(-c2ccccc2)c1)c1ccco1	120 to 122
CN(C)CCn1ccc(-c2ccc(F)cc2)c1-c1ccncc1	70 to 73
Cc1ccc(C)n1N(C)c1ccc(N2CCOCC2)nn1	119 to 122
CN(CCCNC(=O)NCCSCc1csc(NC(=N)N)n1)CCC(c1ccccc1)c1ccccn1 (stereo unspecified)	95 to 98
c1ccc2c(c1)nc1n2CCC1	86 to 88
CN(C)CCCCCCCCCCOc1ccc(C(=O)c2ccccc2)cc1	33 to 35
O=S(=O)(c1cc(SC(F)(F)F)[nH]c1-c1ccc(Cl)cc1)C(F)(F)F	118 to 122
CCCN1Cc2c(Cl)nc(Cl)nc2N1	80 to 84
Cc1nc(S(C)(=O)=O)oc1C	42
O=C(NCCc1ccccc1)Nc1ccc(CN2C(=O)[C@H]3CCC[C@H]3N(C(=O)CN3C(=O)c4ccccc4C3=O)c3ccccc32)cc1 (relative stereo)	145 to 147
O=C(O)c1ccc(-c2ccccc2O)cc1	176 to 178
Brc1ccc(N(Cc2ccccc2)Cc2ccccc2)cc1	123
CC(=O)N1c2ccccc2-c2c([N+](=O)[O-])cnn2C1(C)C	182 to 183
NS(=O)(=O)c1cccc2c1COC2	153 to 158
Cn1cc(C(=O)O)cc1C(=O)c1ccccc1	210 to 212
CCCc1cccc2cc(C(=O)O)oc12	75 to 80
CCCCCCCCc1ccc(C(=O)C2CC2C(=O)O)cc1 (stereo unspecified)	45 to 47
N#CC(=NO)c1c(F)cccc1Cl	119 to 120

— a melting point compilation (Tetko et al.; mined from patent text by program, amines drawn as free bases though some values may be those of a salt)
